The values that follow come from ChEMBL document CHEMBL1201862, “PubChem BioAssay data set” (2004).

What all share (assay): NCI anticancer screen, dose series, 48 h
Assay [1] concerns SF-268.
The test system of assay [2] is OVCAR-3.
Assay [3] concerns SW-620.
Assay [4] deals with EKVX.
Assay [5] has as its system MCF7.
The subject of assay [6] is PC-3.
Assay [7] relates to SNB-19.
Assay [8] concerns SF-295.
Assay [9] relates to A498.
The test system of assay [10] is SN12C.
Assay [11] deals with NCI/ADR-RES.
Assay [12] concerns COLO 205.
Assay [13] concerns U-251.
The subject of assay [14] is NCI-H522.
Assay [15] deals with 786-0.
The subject of assay [16] is MOLT-4.
The subject of assay [17] is MDA-MB-231.
The test system of assay [18] is HCC 2998.
In assay [19] the test system is NCI-H460.
The subject of assay [20] is RXF 393.

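In this assay, cells in 96-well plates receive the compound at five concentrations for 48 hours. Endpoints are linearly interpolated between the surrounding concentrations. Here, GI50 denotes the concentration required for 50% inhibition of growth.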 Calls of active or inactive are those of the source. Cut-off read from the data, not from the text of the source: active = GI50 up to about 1.1 µM and inactive = higher. Where a SMILES comes first, the peptide text is derived from it. [ ]: non-standard residue; d: D form. The star is where a group is joined. Phe(4-NO2) = N[CH](Cc1ccc([N+](=O)[O-])cc1)C(=O)O; Boc = CC(C)(C)OC(=O)*; OtBu = CC(C)(C)O*

`CC1=NN(c2nc(N)nc(CBr)n2)C(C)(C)C1`: the GI50 in assay [1] was 6.01 µM (inactive); in assay [2], 3.42 µM (inactive); in assay [3] it was 4.19 µM (inactive); in assay [4], 3.66 µM (inactive); in assay [5], 2.47 µM (inactive); in assay [6], 5.33 µM (inactive). In addition, the GI50 in [7] is 16.7 µM (inactive); in assay [8] it was 12.1 µM (inactive); in assay [9], 12.9 µM (inactive); in [10] it was 5.22 µM (inactive); in assay [11], 17.7 µM (inactive); in assay [12], 3.03 µM (inactive). Further, the GI50 in [13] was 6.76 µM (inactive); in assay [14] it was 0.234 µM (active); in [15], 0.692 µM (active); in [16], 1.61 µM (inactive); in assay [17], 7.18 µM (inactive); in assay [18], 16.1 µM (inactive). Further, the GI50 in assay [19] is 7.64 µM (inactive); in assay [20], 2.78 µM (inactive).
Turning to `COc1cccc(C2CC(C)(N3CCCC3)Oc3cc4c(cc32)OCO4)c1O` (stereo not given), the GI50 in assay [1] is 30.3 µM (inactive); in assay [2], 20 µM (inactive); in assay [3] it was 25.8 µM (inactive); in [4], 63.2 µM (inactive); in [5], 39.1 µM (inactive); in assay [6] it was 10.6 µM (inactive). Also, the GI50 in assay [7] was 37.6 µM (inactive); in [8], 22.1 µM (inactive); in assay [9], 28.3 µM (inactive); in assay [10], 25.6 µM (inactive); in [11] it was 20.8 µM (inactive); in assay [12], 19.1 µM (inactive). The GI50 in assay [13] was 25.1 µM (inactive); in assay [14], 19.1 µM (inactive); in assay [15], 32.8 µM (inactive); in assay [16], 21.8 µM (inactive); in assay [17] it was 19.1 µM (inactive); in [18], 23 µM (inactive). The GI50 in assay [19] is 28.2 µM (inactive); in [20], 26.7 µM (inactive).
For `Cn1c(O)c(C(=O)Nc2ccc([N+](=O)[O-])cc2)c(=O)n(C)c1=S`, the GI50 in [1] is 2.64 µM (inactive); in assay [2], 2.37 µM (inactive); in assay [3] it was 3.49 µM (inactive); in assay [4], 2.9 µM (inactive); in assay [5], 1.78 µM (inactive); in [6] it was 1.34 µM (inactive). Besides, the GI50 in assay [7] is 2.16 µM (inactive); in assay [8] it was 1.31 µM (inactive); in assay [9], 0.499 µM (active); in assay [10], 3.13 µM (inactive); in [11], 2.79 µM (inactive); in [12] it was 3.31 µM (inactive). Further, the GI50 is 2.23 µM (inactive) in assay [13]; 2.32 µM (inactive) in assay [14]; 2.67 µM (inactive) in assay [15]; 3.08 µM (inactive) in assay [16]; 2.54 µM (inactive) in [17]; 2.47 µM (inactive) in assay [18]. Besides, the values for the GI50 in [19] and in [20] were 2.82 µM (inactive) and 1.12 µM (active), respectively.
Take `COc1ccc(/C=N/N=C(\N)NO)c(O)c1`: the GI50 is > 10 µM (inactive) in assay [1]; 5.51 µM (inactive) in assay [2]; > 10 µM (inactive) in assay [3]; > 10 µM (inactive) in assay [4]; 4.34 µM (inactive) in [5]; 3.48 µM (inactive) in assay [6]. Besides, the GI50 in [7] was > 10 µM (inactive); in assay [8], > 10 µM (inactive); in assay [9], 8.77 µM (inactive); in assay [10], 8.53 µM (inactive); in [11] it was 3.92 µM (inactive); in assay [12], > 10 µM (inactive). The GI50 in assay [13], in assay [14], in assay [15], in assay [16], in [17] and in assay [18] was > 10 µM (inactive) throughout. The GI50 in assay [19] is 4.91 µM (inactive); in assay [20] it was > 10 µM (inactive).
Turning to `CCN(CC)CCCNc1nncc2cc3c([nH]c4ccc(OC)cc43)c(C)c12`, the GI50 was 6.65 µM (inactive) in assay [1]; 7.05 µM (inactive) in [2]; 4.61 µM (inactive) in assay [3]; 15.8 µM (inactive) in [4]; 2.56 µM (inactive) in assay [5]; 4.01 µM (inactive) in [6]. Moreover, the GI50 in assay [7] was 5.97 µM (inactive); in [8], 12.6 µM (inactive); in assay [9] it was 16.4 µM (inactive); in [10] it was 6.12 µM (inactive); in assay [11], > 100 µM (inactive); in assay [12], 7.26 µM (inactive). The GI50 was 3.69 µM (inactive) in assay [13]; 2.7 µM (inactive) in assay [14]; 4.13 µM (inactive) in [15]; 2.3 µM (inactive) in assay [16]; 7.41 µM (inactive) in assay [17]; 6.1 µM (inactive) in [18]. Also, the GI50 was 3.63 µM (inactive) in assay [19] and 5.81 µM (inactive) in [20].
As to `CC(C)/C(Cl)=N/OC(=O)Nc1ccc(Br)cc1`, the GI50 in assay [1] is 17.1 µM (inactive); in assay [2] it was 4.89 µM (inactive); in [3], 2.2 µM (inactive); in [4] it was 1.97 µM (inactive); in [5], 7.66 µM (inactive); in assay [6], 13.6 µM (inactive). The GI50 in assay [7] is 20.8 µM (inactive); in assay [8], 15.2 µM (inactive); in assay [9], 18.4 µM (inactive); in assay [10], 2.16 µM (inactive); in assay [11], 13.4 µM (inactive); in assay [12], 1.88 µM (inactive). Also, the GI50 in assay [13] is 18.7 µM (inactive); in assay [14], 1.52 µM (inactive); in assay [15], 1.88 µM (inactive); in assay [16], 2.39 µM (inactive); in assay [17], 16.1 µM (inactive); in [18] it was 15.5 µM (inactive). Besides, the GI50 was 15 µM (inactive) in assay [19] and 10.2 µM (inactive) in [20].
As for `COC(=O)C(Cc1ccc([N+](=O)[O-])cc1)NC(=O)C(CC(=O)OC(C)(C)C)NC(=O)OC(C)(C)C` (stereo not given) (Boc-Asp(OtBu)-[Phe(4-NO2)]-OMe; configuration not given here), the GI50 in assay [1], in assay [2], in [3], in assay [4], in assay [5] and in assay [6] was > 100 µM (inactive) throughout. Besides, the GI50 in [7] was > 100 µM (inactive); in assay [8], > 100 µM (inactive); in assay [9], > 100 µM (inactive); in assay [10] it was > 100 µM (inactive); in [11], > 100 µM (inactive); in [12] it was 30.2 µM (inactive). Also, the GI50 in assay [13] is > 100 µM (inactive); in assay [14] it was 63.5 µM (inactive); in assay [15], > 100 µM (inactive); in assay [16], 66.8 µM (inactive); in [17], 25.8 µM (inactive); in assay [18], 35.2 µM (inactive). In addition, the GI50 in [19] and in assay [20] was > 100 µM (inactive) each time.
